A short description of data set [1]: Biodistribution in K562 xenograft mice. The format is in vivo, mouse. The note with it: K562 xenograft NOD/SCID mice; mt-Cbl 15 mg/kg, Cbl 100 mg/kg i.p. daily for 10 days. The procedure: K562 cells (3×10^6) were injected subcutaneously into the flanks of ten NOD/SCID mice (Ontario Cancer Institute, Toronto, ON). Palpable tumours were formed 7 days after injection and mice were then treated daily for 10 days with Cbl (100 mg/kg) or mt-Cbl (15 mg/kg) by intraperitoneal injection. Mice were sacrificed 17 days after injection of cells and organs were excised for analysis of Cbl and mt-Cbl biodistribution profiles. The liver, kidneys, spleen, heart, lungs and brain were removed from mice following sacrifice and immediately frozen in dry ice until analysis. Tissues were homogenized in four volumes of ice-cold acetonitrile and centrifuged at 10,000×g for 10 min, 4°C. The resulting supernatant was analyzed via HPLC-MS/MS to determine drug concentrations in each tissue.

For data set [2] the following is noted: in water; cited from earlier work.
A short description of data set [3]: Rate of hydrolysis in saline or plasma (HPLC-MS/MS). The class given is in vitro ADME, mouse. The note with it: 37°C. The method, then:
Stability of mt-Cbl and MPP in mouse plasma: Thiazole orange-labelled conjugates were incubated in mouse plasma for three weeks at room temperature. The stability of these compounds was then assessed via reverse-phase HPLC. A single peak with the identical retention time to a fresh conjugate control was considered to be a positive result for stability in mouse plasma. Rate of mt-Cbl and Cbl hydrolysis in saline or plasma: Cbl and mt-Cbl were incubated in saline or plasma for 0 h, 0.5 h, 1 h, 1.5 h, 2 h, 2.5 h and 3 h at 37°C. Following this, plasma proteins were precipitated in four volumes of ice-cold acetonitrile and centrifuged at 10,000×g for 10 min, 4°C. The resulting supernatant was analyzed via HPLC-MS/MS to determine active drug concentrations in each sample.

The subject of data set [4] is caspase 3/7 activity in HeLa cells. Description: Caspase-Glo 3/7 activity assay. The note with it: 6 hours. The class given is cell-based. The procedure: (§1) HeLa cells were seeded at 7500 cells/well a day prior to experiments in white flat clear-bottom 96-well plates (Greiner Bio one). Cells were incubated with Cbl, Cbl conjugates, staurosporin or digitonin as appropriate at indicated concentrations. Cellular ATP levels and protease activity were measured after a 90 minute incubation using the Mitochondrial ToxGlo assay (Promega) as per manufacturer's instructions. To assess caspase 3/7 activity, cells were incubated with compound for 6 hours prior to measurement with the Caspase-Glo® 3/7 Assay (Promega) as per manufacturer's instructions.

The subject of another data set is mouse livers. Description: Liver toxicity: H&E histology and plasma liver enzymes. The class given is in vivo. As to conditions: mt-Cbl 15 mg/kg, Cbl 3.7 mg/kg every other day for 21 days. The procedure:
Mice were treated every other day with equimolar doses of either mt-Cbl (15 mg/kg), Cbl (3.7 mg/kg) or vehicle control for 21 days by Kard Scientific (Beverly, MA). Following sacrifice, mouse livers and K562 xenograft tumors were fixed in 10% formalin overnight and then transferred to 70% ethanol. Samples were then paraffin-embedded, sectioned and stained in a standard manner by the Pathology Research Program Laboratory at Toronto General Hospital. Biotin-conjugated secondary antibodies, avidin horseradish peroxidase and the chromogenic diaminobenzidine tetrahydrochloride (DAB) were used for detection. Slides were imaged at 20× and then analyzed using Aperio ImageScope Software (Aperio Technologies, Vista, California). Positive pixels were identified and counted using the Positive Pixel Count V9 algorithm in this software. Quantification was performed on ten representative squares of 2500×2500 μm each and an average was calculated. % Positive Pixels was determined by dividing the positive pixel count by the total number of pixels analyzed. A standard hematoxylin and eosin (H&E) staining was performed on liver sections and these were reviewed for hepatotoxicity and injury by a pathologist with liver expertise. In addition, liver toxicity was evaluated though determination of levels of specific liver enzymes. Mice were treated every other day with equimolar doses of either mt-Cbl (15 mg/kg), Cbl (3.7 mg/kg) or vehicle control for 21 days. Three days after the final dose, mouse plasma samples were tested for levels of bilirubin, alkaline phosphatase and aspartate transaminase in a standard manner.

Another data set is described as follows: Maximal tolerated dose. As to conditions: mouse, in vivo, ip; NOD/SCID mice, intraperitoneal. The method, then: Non-obese diabetic/severe combined immunodeficiency (NOD/SCID) mice were treated intraperitoneally with increasing concentrations of Cbl (10–500 mg/kg) or mt-Cbl (10–50 mg/kg). Animals were monitored daily for weight loss, lethargy and other signs of physical discomfort. […] All animal studies were carried out according to the regulations of the Canadian Council on Animal Care and with the approval of the Ontario Cancer Institute Animal Ethics Review board or the Faculty of Medicine Animal Care Committee at the University of Toronto.

Data set [5] can be described thus: Pharmacokinetic study, plasma levels by HPLC-MS/MS. As to conditions: mouse, ip, CD1 mice, single dose 10 mg/kg intraperitoneal; for AUC: unit inferred. The class given is in vivo. The procedure:
Animal handling and dose administration was performed by Kard Scientific (Beverly, MA). Six CD1 mice were treated with a single dose of 10 mg/kg mt-Cbl or Cbl via intraperitoneal injection. Blood samples were collected at 15 min, 30 min, 1 h, 2 h, 4 h and 8 h in heparin-treated tubes. Samples were kept on ice until centrifugation at 1,500 rpm for 20 min, 4°C and the resulting plasma supernatants were transferred to fresh tubes. Plasma proteins were precipitated with four volumes of ice-cold acetonitrile and spun at 10,000×g for 10 min, 4°C. The resulting supernatant was analyzed via HPLC-MS/MS to determine plasma concentrations of Cbl and mt-Cbl.

The subject of the next data set is leukemia. The arrangement: method as in PMID 8241831. The note with it: cited from earlier work.
Data set [6] deals with caspase-3 and PARP-1 cleavage in HeLa cells. The format is cell-based.
In data set [7] the test system is HeLa cells. The data set is described as follows: Mitochondrial ToxGlo assay, protease activity and cellular ATP levels. The format is cell-based. The note with it: 90 minutes, various doses (over EC50). The procedure:
as §1

The subject of data set [8] is mitochondrial proteins of HL-60 cells. Description: Cbl-conjugate labeling of mitochondrial proteins (immunoblot). The note with it: HL60 cells, 30 min; biotin-labeled mt-Cbl 1.5 μM or Cbl-TPP 10 uM. The class given is cell-based. The procedure: HL-60 cells (25 million cells) were incubated with biotin-labeled mt-Cbl peptide (Biotin-mt-Cbl) (0, 1.5 μM) or Cbl-TPP (10 uM) for 30 min, after which the cells were collected. The cells were then washed with ice-cold PBS, and their mitochondria were isolated using Mitochondrial Isolation Kit for Mammalian Cells (Thermo Scientific). The mitochondrial pellets were then lysed using RIPA buffer plus protease inhibitors for 30 min. at 4°C and the total protein concentration determined using BCA assay. Lysates (10 μg of total protein) were then loaded onto 7% gels and run at 30 V for 30 min. and 150 V for 1 hour using a tris-tricine buffer system (Cathode buffer: 0.1 M Tris, 0.1 M Tricine, and 0.1% SDS, Anode buffer: 0.2 M Tris-Cl, pH8.9). Immunoblotting was continued as described previously using biotin antibody to detect the biotin tag on mt-Cbl or TPP antibody to detect Cbl-TPP.
(A western blot detects proteins with antibodies after separation by electrophoresis.)

The nature of data set [9]: Alkylation activity with 4-(4-nitrobenzyl)pyridine. The note with it: absorbance of 4-(4-nitrobenzyl)pyridine. The text has this: Supplementary file pone.0060253.s005.pdf: Figure S5 Characterization of Cbl-TPP. (a) Chemical structure of Cbl-TPP . Cbl was conjugated to a triphenylphosphonium ion to generate Cbl-TPP. (b) Alkylation activity of Cbl, mt-Cbl and Cbl-TPP.

For a further data set, the system named is mtDNA of HL-60 cells. The data set is described as follows: Cbl-conjugate labeling of mtDNA (dot blot with TPP antibody). The note with it: 10 uM, 30 min. The format is cell-based. The method, then:
HL-60 cells (25 million cells) were incubated with Cbl-TPP (10 uM) for 30 min, after which the cells were collected. The cells were then washed with ice-cold PBS, and their mitochondria were isolated using Mitochondrial Isolation Kit for Mammalian Cells (Thermo Scientific). The mtDNA was extracted from the mitochondrial pellets using AllPrep DNA/RNA Mini Kit (QIAGEN). DNA concentration was measured using a NanoDrop 1000 Spectrophotometer (Thermo Scientific) and then normalized (10 ng/μl). After this, a nitrocellulose membrane was spotted with untreated and treated DNA and UV crosslinked using UV Stratalinker 1800 (Stratagene) The membrane was blocked with 5% BSA-TBST for 1 hr at room temperature and then probed with TPP antibody (1∶5000) at 4°C overnight. Then the membrane was washed and visualized with chemiluminescence detection (GE Amersham).

Data set [10] relates to 143B cells and 143B ρ° cells. Description: CCK-8 cell viability in 143B parental and ρ° cells. As to conditions: overnight incubation, various doses. The format is cell-based.
Data set [11] concerns HeLa cells. The note with it: 18 hours treatment.
A short description of data set [12]: Stability in mouse plasma over three weeks (HPLC). The note with it: three-week incubation, HPLC single peak.

Entries after “also recorded” stand apart in the source; their conditions may differ. Where two headings read alike, the source gives them in different places. Square brackets hold non-standard residues; d marks the D form. Peptide text beside a SMILES is read from it. * marks the point of attachment. ξ: configuration not given here. Chlorambucil = O=C(CCCc1ccc(N(CCCl)CCCl)cc1)*; ξCha = NC(CC1CCCCC1)C(=O)O

As for `O=C(O)CCCc1ccc(N(CCCl)CCCl)cc1` [Cbl, chlorambucil, reference compound], in data set [1], the Accumulation in liver entry is on record as “site of greatest accumulation” and the Levels in kidneys entry is “very low levels”. Further, in data set [2], the half-life is 0.5 h. For the same compound, in data set [3] (mouse plasma), the half-life was 1 h. In data set [3] (mouse, saline), the half-life is 1 h. Besides, the Caspase-3/7 activity result in data set [4] is listed as “increase in caspase-3/7 activity in a dose-dependent manner”. Also, in the data set with mouse livers, the “Liver histology (H&E)” value is “histologically normal with no features of injury or toxicity”; the “Plasma levels of bilirubin, alkaline phosphatase and aspartate aminotransferase” value was “No significant change”. Further, the maximal tolerated dose (MTD) in “Maximal tolerated dose” is 400 mg/kg. In data set [5], the Cmax came out at 200 ng/mL, the half-life is 0.75 h and the area under the curve (AUC) was 147 ng·h/mL. Also, in the data set with leukemia, the “Initial response rate in patients” value is 40–60%. In addition, the “Cleavage of caspase-3 and PARP-1” value in data set [6] (HeLa, Cbl 750 μM, 8 hours, Q-VD-Oph 20 μM pretreatment) is “induced the cleavage and activation of caspase-3”.

Regarding `O=C(CCCc1ccc(N(CCCl)CCCl)cc1)NCCC[P+](c1ccccc1)(c1ccccc1)c1ccccc1` [Cbl-TPP], in the data set with HeLa cells [7], the “Cellular ATP level” value is given as “drastic drop in ATP cellular levels” and the Protease activity entry was “significant increase in protease activity”. In [8], the “Alkylation of mitochondrial proteins” value is “Alkylation of both mtDNA and proteins”. Further, the “Alkylation activity (rate of alkylation)” value in data set [9] was “retained alkylation activity very similar to that observed with the MPP conjugated form of mt-Cbl; also recorded: reduces its alkylation activity”. The “Alkylation of mtDNA” value in the data set on mtDNA of HL-60 cells was “Alkylation of both mtDNA and proteins”. In [10], the “Toxicity in 143B parental versus mtDNA-free ρ° derivative” value is recorded as “overlapping toxicity profiles”.

Turning to `CC(=O)NC(CC1CCCCC1)C(=O)N[C@H](CCCNC(=N)N)C(=O)NC(CC1CCCCC1)C(=O)N[C@H](CCCNC(=N)N)C(=O)NC(CC1CCCCC1)C(=O)N[C@H](CCCNC(=N)N)C(N)=O` (stereo partly drawn) [MPP] (Ac-[ξCha][dR][ξCha][dR][ξCha][dR]-NH2; N-terminus and C-terminus assumed), the “Stability in mouse plasma” value is “stable”.

As to `CC(C)[C@H](NC(=O)c1ccc2ccccc2n1)C(=O)N[C@@H](CC(=O)O)C(=O)COc1c(F)cccc1F` [Q-VD-Oph], in [6], the “Cleavage of caspase-3 and PARP-1” value is “suppressed the effects of Cbl treatment”.

In the data set with HeLa cells [11] (HeLa after siEXOG transfection), `N=C(N)NCCC[C@@H](NC(=O)C(CC1CCCCC1)NC(=O)[C@@H](CCCNC(=N)N)NC(=O)C(CC1CCCCC1)NC(=O)[C@@H](CCCNC(=N)N)NC(=O)C(CC1CCCCC1)NC(=O)CCCc1ccc(N(CCCl)CCCl)cc1)C(N)=O` (stereo partly drawn) [mt-Cbl] (Chlorambucil-[ξCha][dR][ξCha][dR][ξCha][dR]-NH2) showed an LD50 of 4.7 µM. The same compound had an LD50 with HeLa cells [11] (HeLa after siNT (untargeted siRNA control) transfection) of 3.5 µM. In data set [1], the Accumulation in liver entry is “site of greatest accumulation”, the “Accumulation in tumors compared to Cbl” value is listed as ~250 fold and the Levels in kidneys entry is on record as “very low levels”. Besides, the “Half-life (hydrolysis)” value in data set [3] (mouse plasma) was 1 h. Moreover, the half-life in data set [3] (mouse, plasma, saline) is 1 h. For the same compound, in the data set on mouse livers, the “Liver histology (H&E)” value is on record as “histologically normal with no features of injury or toxicity”; the “Plasma levels of bilirubin, alkaline phosphatase and aspartate aminotransferase” value is reported as “No significant change”. The MTD in the data set “Maximal tolerated dose” is 50 mg/kg. Further, in data set [12], the “Stability in mouse plasma” value is “stable in mouse plasma”. In data set [5] (in vivo), this compound showed a maximum concentration (Cmax) of 800 ng/mL, a half-life of 6 h and an exposure (AUC) of 3560 ng·h/mL.

A word on the half-life: it is the time in which the quantity being followed falls by half. Usually MTD stands for the highest dose tested that stayed within the study's limit of toxicity. Low values mean a narrow tolerated range, high ones a wide tolerated range. For orientation: Cmax means the maximum level reached in the sampled fluid or tissue. The term AUC denotes the area under the concentration-time curve, a measure of exposure.

The values above are taken from publication PMC3621862, “Re-Directing an Alkylating Agent to Mitochondria Alters Drug Target and Cell Death Mechanism” (PLoS ONE, 2013).
